Source: publication PMC12040169 (PLOS Biology, 2025)

Test: in vitro
Settings: human, hela cells, % viability

Row | Compound | viability at 28.5 h, 10 µM | viability at 28.5 h, 10 µM (bulk resorufin, single well)
1 | CCn1cc(C(=O)N2CCN(Cc3ccco3)C[C@@H]2C(C)C)c(C)n1 [CBK285488] | 110% | 
2 | O=C(O)CCC(=O)N1CCN(C2CCCCC2)CC1 [CBK286918] | 94.1% | 
3 | CC(NC(=O)c1cc2ccccc2c(=O)[nH]1)c1ccc(-c2ccccc2)cc1 (centres unmarked) [CBK297936] | 86.4% | 
4 | Cc1ncsc1CCOc1nc2ccccc2nc1C(F)(F)F [CBK115802] | 95.2% | 
5 | CCOC(=O)c1cnc(Nc2nc3ccccc3o2)nc1CN1CCN(c2ccccc2)CC1 [CBK266927] | 93.1% | 
6 | Cc1cc(OC(C)C(=O)Nc2ncccc2C)ccc1Cl (centres unmarked) [CBK269637] | 78.4% | 
7 | O=C(O)c1cc(-n2c(S)nnc2-c2cnccn2)ccc1Cl [CBK269285] | 86.2% | 
8 | Nc1ncc(-c2cccc(C(=O)O)c2)nc1N1CCOCC1 [CBK063415] | 101% | 
9 | COc1cccc(N(CC(=O)Nc2ccccc2Cl)S(=O)(=O)c2ccc(C)cc2)c1 [CBK263791] | 93.4% | 
10 | CN1CCN(c2nc(-c3cc4ccccc4s3)cn3ccnc23)CC1 [CBK066388] | 106% | 
11 | O=P(O)(CN1CCCCCC1)CN1CCCCCC1 [CBK262311] | 92.1% | 
12 | O=C(CCc1ccc(Cl)cc1)NCCn1cncn1 [CBK283184] | 98.6% | 
13 | CCn1cc(-c2cncn2CC(C)n2nc(C)cc2C)cn1 (centres unmarked) [CBK281775] | 87.1% | 
14 | COC(=O)CCSc1nc(C)nc2c1c(=O)n(C)c(=O)n2CC(C)C [CBK305891] | 82.7% | 
15 | O=C(O)c1cc(S(=O)(=O)NC(CO)C(O)c2ccc([N+](=O)[O-])cc2)ccc1Br (centres unmarked) [CBK262515] | 104% | 
16 | O=C(Nc1nnc(-c2ccccn2)o1)c1cc(Cl)ccc1Cl [CBK287429] | 96.9% | 
17 | CC(=O)Nc1ccc(F)c(NC(=O)NCCC2CCCN2C)c1 (centres unmarked) [CBK304661] | 101% | 
18 | N#Cc1c2c(c(Nc3ccc(C4CCCCC4)cc3)n3c1nc1ccccc13)CCC2 [CBK263122] | 95.1% | 
19 | CCCCOC(=O)c1ccccc1NC(=O)NCCc1cccs1 [CBK043573] | 93.5% | 
20 | COc1ccc(NS(=O)(=O)c2cc(C(=O)O)c(Cl)cc2Cl)cc1 [CBK095077] | 89.7% | 
21 | CC(=O)N1CCC2(CCCC[C@H]3CNCC[C@@H]3NC(=O)CNC2=O)CC1 [CBK292167] | 91.7% | 
22 | C/C(=N\NC(=O)c1ccccc1O)c1ccc(NC(=O)c2ccc(C)cc2)cc1 [CBK261251] | 84.7% | 
23 | Cn1ncc2c(=O)n(Cc3nc(C(C)(C)C)no3)cnc21 [CBK304906] | 87.9% | 

Row | Compound | viability at 28.5 h, 10 µM | viability at 28.5 h, 10 µM (bulk resorufin, single well)
24 | CCCS(=O)(=O)Nc1nccnc1-c1cccs1 [CBK050763] | 89.4% | 
25 | CC(=O)c1ccc(NC(=O)CSc2nnc(-c3ccncc3)s2)cc1 [CBK269183] | 85.1% | 
26 | O=C(N[C@H]1CCN2C(=O)c3cc(-c4ccccc4)ccc3NC(=O)[C@H]12)c1cccs1 [CBK289350] | 85.9% | 
27 | O=C(c1cccnc1)N1CCCC(n2cnc3cc(F)ccc32)C1 (centres unmarked) [CBK284474] | 85.6% | 
28 | COc1ccc(C(=O)Nc2cc3ccccc3c(N3CCNCC3)n2)cc1 [CBK036344T] | 91.2% | 
29 | COc1cccc(-c2cc(C(=O)N3CCC(C)CC3)n[nH]2)c1 [CBK288109] | 94.3% | 
30 | CCOC(=O)c1c(C)nc(-c2ccccc2)nc1NC(=O)C(C)C [CBK028118] | 90.1% | 
31 | c1ccc(CC2CCN(CCc3c[nH]c4ccccc34)CC2)cc1 [CBK126385] | 94.9% | 
32 | Cc1nc[nH]c1CN(Cc1cccc(F)c1)Cc1ccco1 [CBK282493] | 75.7% | 
33 | O=C(O)CSc1nnc(C2COc3ccccc3O2)n1-c1ccccc1 (centres unmarked) [CBK263832] | 104% | 
34 | CC(=O)N(CN1C(=O)CCC1=O)C(CC(C)C)C(=O)O (centres unmarked) [CBK286553] | 87.7% | 
35 | COc1ccc(-c2cncc(N3CCN(c4cccc5[nH]ccc45)CC3)n2)cc1 [CBK066087] | 97.2% | 
36 | CS(=O)(=O)c1ccc(-c2nccnc2N2CCCCC2CO)cc1 (centres unmarked) [CBK037657] | 102% | 
37 | O=C(O)CCC(=O)NN1C(=O)c2ccccc2NC1c1ccc(F)cc1 (centres unmarked) [CBK286905] | 84% | 
38 | CC(C)(C)S(=O)(=O)CC(N)=S [CBK021304] | 91.1% | 
39 | CC(C)(C)c1csc(NC(=O)C2CC(=O)N(c3cccc(C(F)(F)F)c3)C2)n1 (centres unmarked) [CBK175545] | 106% | 
40 | OC(CN1CCC(Oc2ccccc2F)CC1)c1cccs1 (centres unmarked) [CBK281433] | 95.2% | 
41 | O=C(C1CCCC1)N1CC(n2nc(-c3ccccc3)ccc2=O)C1 [CBK284617] | 93.9% | 
42 | Cc1cc(C(=O)Nc2cccc3cc[nH]c23)ccc1Cl [CBK160078] | 96.2% | 
43 | CC(=O)Nc1cccc(-c2cncc(NCc3cccc(Cl)c3)n2)c1 [CBK065236] | 97.2% | 
44 | O=C(O)CSc1nnc(-c2sc3ccccc3c2Cl)n1-c1ccccc1 [CBK263830] | 92.9% | 
45 | COc1ccc(C(=O)N2CCC3(CCN(Cc4cc(OC)c(OC)c(OC)c4)C3)C2)cc1OC (centres unmarked) [CBK132149] | 100% | 
46 | CCn1cc(CN2C3CCC2CC(O)(c2ccccc2F)C3)cn1 (centres unmarked) [CBK282662] | 86.5% | 

Row | Compound | viability at 28.5 h, 10 µM | viability at 28.5 h, 10 µM (bulk resorufin, single well)
47 | Cc1nc(C)c(C(=O)N2CCCC(c3cc4cccnc4[nH]3)C2)s1 (centres unmarked) [CBK284995] | 97.4% | 
48 | Cc1ccc(C2(C(=O)NCCCn3ccnc3C)CCOCC2)cc1 [CBK281588] | 91.6% | 
49 | C[N+](C)(C)c1ccc(C(=O)O)cc1 [CBK260929B] | 90% | 
50 | COc1cc2c(cc1OC)C(CCCC#N)=[N+](C)C(C)(C)C2 [CBK008807I] | 97.9% | 
51 | CC(C)Nc1cncc(OCCN2CCOCC2)n1 [CBK115599] | 109% | 
52 | COc1ccc([N+](=O)[O-])c(N2CCOC3(CCN(C(=O)OCc4ccccc4)CC3)C2)n1 [CBK161117T] | 103% | 
53 | O=C(CSc1nc[nH]n1)Nc1nsc(-c2ccc(Cl)cc2)n1 [CBK267273] | 110% | 
54 | CC(C)n1ccc2cc(C(=O)NC3CCOC(C)(C)C3)ccc21 (centres unmarked) [CBK304366] | 90.6% | 
55 | O=C(NCc1ccc(Cl)cc1)c1cc(-c2ccc(F)cc2)nc2ccccc12 [CBK294451] | 111% | 
56 | CCN(CC)C(=O)c1ccc2[nH]ccc2c1 [CBK149072] | 97.1% | 
57 | CN1C[C@@H](NS(C)(=O)=O)C[C@H]1c1nc(-c2ccc3c(c2)OCO3)no1 [CBK288875] | 114% | 
58 | CCN(CC)CCN1CCN(c2cc(-c3ccc(OC(F)(F)F)cc3)ncn2)CC1 [CBK037756] | 96.3% | 
59 | CCOC(=O)N1CCC(NC(=O)N(CCc2ccccc2)Cc2ccccc2)CC1 [CBK155359] | 107% | 
60 | COCCN(C(=S)Nc1ccc(C)cc1Cl)C(C)c1cccnc1 (centres unmarked) [CBK294472] | 91.1% | 
61 | CN1CCN(CCC(=O)Nc2ccc(Cl)c(C(F)(F)F)c2)CC1 [CBK265995] | 89.9% | 
62 | CN(C)c1ccc(Nc2cc(Cl)nc3ccnn23)cc1 [CBK037203] | 98.3% | 
63 | Cc1cc(C)c2c(n1)oc1c(NC(C)C)ncnc12 [CBK287917] | 108% | 
64 | O=C(Nc1ccccc1O)c1ccc2c(c1)C(=O)N(c1ccc(Sc3ccc([N+](=O)[O-])cc3)cc1)C2=O [CBK262092] | 86.8% | 
65 | COc1ncc(-c2nccnc2OCCc2c[nH]c3ccccc23)c(OC)n1 [CBK106743] | 79.2% | 
66 | O=C(NCCc1ccc(O)cc1)c1ccc2nc[nH]c2c1 [CBK153323] | 106% | 
67 | Cc1cc(NC(=O)C(=O)NC(C)c2ccccc2)ccc1Br (centres unmarked) [CBK267084] | 96.3% | 
68 | Cc1cccc(CN2CCC(NC(=O)c3cn(C(C)(C)C)nn3)CC2)c1 [CBK305927] | 92% | 
69 | O=C(O)c1cccc(-n2c(S)nnc2-c2ccc3ccccc3n2)c1 [CBK265810] | 103% | 

Row | Compound | viability at 28.5 h, 10 µM | viability at 28.5 h, 10 µM (bulk resorufin, single well)
70 | CC(C)c1nsc(NS(=O)(=O)c2cc(OCC(F)(F)F)ccc2OCC(F)(F)F)n1 [CBK051262] | 106% | 
71 | Cc1cc(C)c2c(C)nn(-c3ccc(C(=O)O)cc3)c2n1 [CBK267480] | 89.6% | 
72 | COC(C(=O)N(C)C)C(OC)C(=O)N(C)C (centres unmarked) [CBK005447] | 111% | 
73 | O=C(NCc1ccc(Cl)c(Cl)c1)c1cnoc1-c1ccccc1Cl [CBK154942] | 98.4% | 
74 | Cc1cc(C(=O)N2CCCc3ccccc32)n[nH]1 [CBK200346] | 92% | 
75 | CCOc1ccc(C(=O)C2=C(O)C(=O)N(CCN(C)C)C2c2ccc(N(C)C)cc2)c(C)c1 (centres unmarked) [CBK264603] | 110% | 
76 | Cc1cccc(-c2cncc(C3CCCN(C(=O)Cc4c[nH]c5ccccc45)C3)n2)c1 (centres unmarked) [CBK286149] | 84.1% | 
77 | COc1ccccc1N1CCN(c2cc(N3CCNCC3)ccc2[N+](=O)[O-])CC1 [CBK293931] | 85.1% | 
78 | c1csc(-c2ccc3c(c2)COC2(CCNCC2)O3)c1 [CBK060871] |  | 90.3%
79 | Cn1c(SCC(=O)c2ccc(O)c(O)c2)nnc1-c1ccccc1 [CBK262544] | 81.5% | 
80 | COc1ccc(N2CCN(c3nc(NCCO)nc(OC)n3)CC2)cc1 [CBK265478] | 103% | 
81 | O=C(NCCCn1ccnc1)c1cnn2c(C(F)(F)F)cc(-c3cccs3)nc12 [CBK263060] | 88.7% | 
82 | Cc1cccc(-c2ncc(NC(=O)C3CC3)nc2-c2cccnc2)c1 [CBK037134] | 98.9% | 
83 | C[C@]12CN(Cc3cccc(C#Cc4ccccc4)c3)C[C@H]1C(=O)Nc1ccccc1C(=O)N2 [CBK286403] | 94.9% | 
84 | COc1ccc(-c2ccc3ccc(=O)[nH]c3n2)cc1C [CBK073712] | 108% | 
85 | N/C(=N\OC(=O)COc1cccc2ccccc12)c1ccccn1 [CBK262999] | 96.2% | 
86 | Cc1ccc(S(=O)(=O)NC(C(=O)O)c2ccccc2)cc1 (centres unmarked) [CBK286985] | 106% | 
87 | Cc1ccc(-n2c(=O)[nH]cc(C(=O)Nc3cccc(Cl)c3C)c2=O)cc1C [CBK287551] | 101% | 
88 | CCN(CC)C(=O)c1ccccc1NS(=O)(=O)c1cc(Br)c(Cl)s1 [CBK045424] | 91.3% | 
89 | O=C(O)CN1C(=O)CC2(C1=O)C(=O)N(Cc1ccccc1)c1ccccc12 (centres unmarked) [CBK076093] | 116% | 
